The values below come from PMC3481288 (The Journal of Biological Chemistry, 2012).

In this assay the target is T1, PBP2ALGA (Staphylococcus aureus, UniProt F4NA57).
T1 sequence (F4NA57 23-665 limits assumed): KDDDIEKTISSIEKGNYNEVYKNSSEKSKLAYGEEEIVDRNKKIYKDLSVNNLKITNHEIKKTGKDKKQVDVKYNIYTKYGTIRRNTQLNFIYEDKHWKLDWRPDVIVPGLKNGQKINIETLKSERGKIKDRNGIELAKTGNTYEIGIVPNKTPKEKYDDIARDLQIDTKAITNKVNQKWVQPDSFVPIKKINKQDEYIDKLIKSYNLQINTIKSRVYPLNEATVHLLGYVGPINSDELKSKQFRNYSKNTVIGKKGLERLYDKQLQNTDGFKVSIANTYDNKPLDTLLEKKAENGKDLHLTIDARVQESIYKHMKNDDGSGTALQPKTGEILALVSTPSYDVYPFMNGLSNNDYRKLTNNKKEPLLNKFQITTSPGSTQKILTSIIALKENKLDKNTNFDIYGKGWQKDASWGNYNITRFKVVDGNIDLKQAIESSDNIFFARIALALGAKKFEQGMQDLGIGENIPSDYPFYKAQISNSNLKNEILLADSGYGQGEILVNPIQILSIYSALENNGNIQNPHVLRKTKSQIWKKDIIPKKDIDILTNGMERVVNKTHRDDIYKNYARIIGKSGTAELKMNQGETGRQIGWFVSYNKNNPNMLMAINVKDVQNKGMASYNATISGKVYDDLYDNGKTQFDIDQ
Kind of assay: Bocillin FL competition, SDS-PAGE fluorescence. Format: binding.

The term IC50 denotes the concentration at which inhibition is half-maximal. Low readings indicate inhibition by little substance, high ones a need for much substance. For the molecule `CO[C@@]1(NC(=O)Cc2cccs2)C(=O)N2C(C(=O)O)=C(COC(N)=O)CS[C@@H]21` [cefoxitin], the half-inhibitory concentration (IC50) is 501 µM.
The same measure for `Cc1onc(-c2ccccc2)c1C(=O)N[C@@H]1C(=O)N2[C@@H]1SC(C)(C)[C@@H]2C(=O)O` [oxacillin]: 212 µM.
